How the values were obtained:
[1] = target: T1, Elastase (Homo sapiens, UniProt P08246); assay: In vitro assay of elastase in the presence of the prodrug and porcine liver esterase; format: biochemical
T1 construct: Elastase is isolated from human sputum; from tissue; host or cells: human sputum
T1 sequence (P08246 30-267): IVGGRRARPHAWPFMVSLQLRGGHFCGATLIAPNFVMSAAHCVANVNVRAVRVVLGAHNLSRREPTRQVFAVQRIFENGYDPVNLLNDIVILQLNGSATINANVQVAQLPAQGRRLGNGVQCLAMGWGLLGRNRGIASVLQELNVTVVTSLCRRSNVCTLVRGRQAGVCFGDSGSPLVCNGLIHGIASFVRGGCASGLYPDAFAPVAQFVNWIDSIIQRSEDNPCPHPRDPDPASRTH
Description: (§1) Elastase was assayed in vitro using the chromogenic substrate N-MeOSuc-Ala-Ala-Pro-Val-p-nitroanilide ([S]=0.20 mM; Km=0.16 mM), available commercially. The assay techniques are similar to those described by Mehdi, et al., Biochemical and Biophysical Research Communications, 166, 595 (1990). The assay mixture consists of partially purified elastase and substrate (0.2 mM) in 0.1 M HEPES (pH 7.5), 0.5 M NaCl, 10% DMSO and 0.1% Brij 35. The reaction (1 or 2 mL, in a plastic cuvette) is maintained at 37° C. and the hydrolysis of the substrate is followed in the presence of MDL 104,569 and 5 units/mL of porcine liver esterase (Sigma Chemical Co., cat. no. E-3128). Elastase is isolated from human sputum, although recently it has become commercially available. The rate of hydrolysis of the substrate with no inhibitor or prodrug added is assigned 100%. In the presence of 1 μM MDL 104,569, a rate of 81% was obtained; when esterase ([…], Sigma Chemical Co.) was also present, the rate decreased to 24%.
(§2) Elastase was assayed in vitro in the presence of MDL 105,565 using the techniques and procedures described in Example 18. With MDL 105,565, at a concentration of 10 nM, a rate of 99% was obtained; when esterase was added, this rate was 76%. At a concentration of 45 nM, the rates were 94% (without esterase) and 37% (with esterase).

[2] = target: T1, Elastase; assay: In vitro assay of elastase with chromogenic substrate N-MeOSuc-Ala-Ala-Pro-Val-p-nitroanilide, no esterase; format: biochemical; settings: for rate of hydrolysis of the substrate (no inhibitor or prodrug added = 100%): without esterase; for Ki: parent (liberated) drug itself, read-out: Ki measured / determined independently
Description: as §1, §2

COC(=O)/C(OC(C)=O)=C(\NC(=O)[C@@H]1CCCN1C(=O)[C@@H](NC(=O)c1ccc(C(=O)NS(=O)(=O)c2ccc(Cl)cc2)cc1)C(C)C)C(C)C [MDL 105,565, L-Prolinamide, N-[4-[[[(4-chlorophenyl)sulfonyl]amino]carbonyl]benzoyl]-L-valyl-N-[2-(acetyloxy)-3-methoxy-1-(1-methylethyl)-3-oxo-1-propenyl]-, (E)]
rate of hydrolysis of the substrate (no inhibitor or prodrug added = 100%) ([1]; 10 nM compound, esterase added): 76% | rate of hydrolysis of the substrate (no inhibitor or prodrug added = 100%) ([1]; 45 nM compound, with esterase): 37% | rate of hydrolysis of the substrate (no inhibitor or prodrug added = 100%) ([2]; 10 nM compound): 99% | rate of hydrolysis of the substrate (no inhibitor or prodrug added = 100%) ([2]; 45 nM compound): 94%

COC(=O)C(=O)C(NC(=O)C1CCCN1C(=O)C(NC(=O)c1ccc(C(=O)NS(=O)(=O)c2ccc(Cl)cc2)cc1)C(C)C)C(C)C (stereo not drawn) [liberated drug, reference compound]
Ki ([1]; drug liberated from MDL 105,565 by esterase in the assay, read-out: Ki of the liberated drug, calculated): 13 nM | Ki [2]: 2 nM

COC(=O)CCC(=O)NC(C)C(=O)NC(C)C(=O)N1CCCC1C(=O)NC(C(=O)C(=O)OC)C(C)C (stereo not drawn) [parent drug, MeOSuc-Ala-Ala-Pro-Val-CO2 CH3, reference compound]
Ki [2]: 200 nM

COC(=O)CCC(=O)N[C@@H](C)C(=O)N[C@@H](C)C(=O)N1CCC[C@H]1C(=O)NC(=C(OC(C)=O)C(=O)OC)C(C)C (mixture of isomers) [MDL 104,569, L-Prolinamide, N-(4-methoxy-1,4-dioxobutyl)-L-alanyl-L-alanyl-N-[2-(acetyloxy)-3-methoxy-1-(1-methylethyl)-3-oxo-1-propenyl]-, (E)- and (Z)-mixture]
rate of hydrolysis of the substrate (no inhibitor or prodrug added = 100%) ([1]; 1 μM compound, esterase also present): 24% | rate of hydrolysis of the substrate (no inhibitor or prodrug added = 100%) ([2]; 1 μM compound, substrate 0.2 mM, pH 7.5, 37° C.): 81%

Reference: patent US5948886A, “Acylated enol derivatives of α-ketoesters and α-ketoamides” (Hoechst Marion Roussel, Inc., priority 1997, dated 1999)
